Here are results for four compounds from US20190216848A1, “New Use of Product for Skin Treatment” (BioCool AB, priority 2016, published 2019).

Molecules are shown by their SMILES. Entries after “also recorded” stand apart in the source; their conditions may differ. Bounds are passed on as bounds.

Series [1] deals with patients with acne vulgaris. As to conditions: references (9), (10), (12); cited from earlier work.
Series [2] relates to patients diagnosed with moderate acne (Acne vulgaris). The conditions noted are these: four weeks of treatment.
Description: Treatment and follow-up: On the first visit to a doctor, patients received the same information and instructions as given by the manufacturer BioCool®. Each patient received the sodium percarbonate at home. The jars of powder were unmarked but if the patient wished to know the content they were informed. All processing was done at residences of the patient by the patient. 5 ml of sodium percarbonate was dissolved in 5 ml of water at a temperature of 35-40° C. to form a solution. The solution was applied to the face using the fingers, and washed away with tap water after 5 minutes. This procedure was repeated daily by the patient. After about one hour after the treatment the subjects could, if desired, lubricate the skin with a moisturizing product, allowing enough time for the skin pores to close up for any additional product. Follow-up visits occurred weekly for four weeks. At each visit, the patient had completed the rating scale DLQ (Dermatology Life Quality Index), they were photographed and subject to an open interview.
Interview: The patient's subjective experience was investigated with a semi-structured interview based on the query field (8). The interview was conducted by research doctors. […] No recording method was used.
Series [3] in a line: Duration of effectiveness of the prepared aqueous solution. It is filed as physicochemical. As to conditions: 1-5 g in 0.05-1 dl of water at 35-40° C.; effectiveness gradually decreases. The procedure: The solution obtained according to the method above is effective for about 24 h. […] A new solution must be prepared after 24 hours as the effectiveness of the singlet oxygen in the solution has decreased below an efficient level for treatment. The solution is to be applied to the face and/or affected skin at least once daily.

The test system of series [4] is individuals with diabetes and neuropathy, feet with moderate to severe skin conditions. The series is described as follows: Diabetic Peripheral Neuropathy foot bath study: skin condition of the feet by photos. Format: in vivo, human. As to conditions: for Condition of the feet / skin condition, visual (photos): all patients included, daily foot bath per study protocol, 6 weeks, preliminary results. The method, then: I. Improvement in skin condition evaluated by photos according to a pre-set scale (1-5): The target population include in this evaluation are adult individuals with diabetes and neuropathy, with feet with moderate to severe skin conditions 7.1.3 Frequency of application. Daily application for 6 weeks or until the signs and symptoms are cleared, then once a week. 1. Start by placing the feet in the footbath, containing 2-3 litres (about 1 gallon) of lukewarm water (about 38° C.). Measure out 15 ml (about 1 tbs.) of granules and add to the footbath. NB! The order is important, the feet must be in the bath before adding the granules. 2. Bathe the feet for about 20 minutes This is a 6-week, single centre, open label evaluation conducted in patients suffering from Diabetic Feet of neuropathic origin with moderate to severe non ulcer pathology (dry skin, cracks, callosities) 9.2 STUDY FLOW CHART visits 0 and 6 weeks for photos, skin evaluation, test protocol and evaluation of safety and concordance At each visit a required medical evaluations is performed at inclusion (0) and 6 weeks (+/−3 days). A photograph is performed and a test protocol is followed regarding skin condition. Any local and general intercurrent events (expected or unexpected) are recorded. Patients receive a patient care diary at their first visit. Investigators are allowed to see patients more frequently if required. 11.3 EVALUATION CRITERIA Improvement of skin condition evaluated by photos analysed by independent observers

In series [5] the test system is patients diagnosed with moderate acne (Acne vulgaris). The series is described as follows: Acne vulgaris pilot study: DLQ (Dermatology Life Quality Index) symptom rating. Format: in vivo, human. The text has this: (§1) Statistical Methods: Dropouts included in the result were 2 patients. These patients were followed up at the doctor's appointment number 2 and the results were included in the so-called “intention to treat” where the values produced two visits was the same for the coming weeks for follow-up visits. The statistical analysis used was t-test and Wilcoxon rank-sum test.
(§2) Each patient received the sodium percarbonate at home. […] This procedure was repeated daily by the patient. […] Follow-up visits occurred weekly for four weeks.
Photography: Each patient was photographed prior to initiation of treatment, and weekly for four weeks. Portrait photo is taken from the front and profile of each view of the face. Photos were taken with the same camera and camera settings and the same photographer. The same light was used by 45-degree angle. However, technology is not validated and all the photos were not taken exactly the same. Each patient was encoded by the study manager with a number. After all the photos were taken, outside observers (fellow doctor) counted the number of acne papule for each patient for each visit, without knowing the visit week during which the photo was taken. […] Results were calculated as an average of the number of acne papule for each visit at the group level. […] Even this was calculated with the average at group level. […]

Series [6] has the same test system. Nature of the series: Acne vulgaris pilot study: blinded acne papule counting from photographs. Format: in vivo, human.
Excerpt: A study consisted of a total of 16 patients, 2 males and 14 females. Mean age was 28±7 years. The study included men and women, previously healthy, between 18-45 years, not using contraception, not breastfeeding or pregnant, and having been diagnosed with moderate acne. Patients with ongoing treatment for acne vulgaris were excluded or treatment was withdrawn one month before the start of the study. Also, patients who could not follow instructions and who were assumed to have poor compliance were excluded.
as §1, §2
Photography: Each patient was photographed prior to initiation of treatment, and weekly for four weeks. Portrait photo is taken from the front and profile of each view of the face. Photos were taken with the same camera and camera settings and the same photographer. The same light was used by 45-degree angle. However, technology is not validated and all the photos were not taken exactly the same. Each patient was encoded by the study manager with a number. After all the photos were taken, outside observers (fellow doctor) counted the number of acne papule for each patient for each visit, without knowing the visit week during which the photo was taken. The number of acne papules was summed up by frontal view, as well as by the two side views. Results were calculated as an average of the number of acne papule for each visit at the group level. DLQ survey summed with points for each patient for each visit. Even this was calculated with the average at group level.

For another series, the system named is microorganisms. As to conditions: within the range of 0.5-4% of hydrogen peroxide.

Consider `COc1ccc(-c2ccc3cc(C(=O)O)ccc3c2)cc1C12CC3CC(CC(C3)C1)C2` [Adapalene], for which, in series [1], the “Number of acne papules / efficacy in literature study” value (shortened to “Number of acne papules / efficacy”) was “significant reduced”; the “Safety / tolerance in literature study” value is “safe and effective”.

For the compound `O=C([O-])[O-].O=C([O-])[O-].OO.OO.OO.[Na+].[Na+].[Na+].[Na+]` [Sodium percarbonate, sodium percarbonate], the “Patients' description of their skin in interviews” value in series [2] is “cleaner, smoother, softer and firmer”. For the same compound, the “Time the prepared solution is effective” value in series [3] is given as “about 24 h”. Also, in series [4] (FIG. 4, after 6 weeks of treatment), the “Condition of the feet (photos), patient No. 01” value is given as “The large crack on the right heel has significantly improved”. Further, the “Condition of the feet (photos), patient No. 06” value in series [4] (FIG. 5, before vs after treatment) was “the ulcer has declined in size”. Moreover, the “Condition of the feet (photos), patient No. 9” value in series [4] (FIG. 6, before vs after treatment) is on record as “the hardened patches are no longer present”. In addition, the “Condition of the feet / skin condition, visual (photos)” value was “significant visual improvement” in series [4] and “significant improvement of the skin condition” in series [4] (listed as sodium percarbonate). The “DLQ symptom rating, median” value in series [5] (after 4 weeks of daily topical treatment, interquartile range 2, p 0.002) worked out at 1.5; in series [5] (before treatment (baseline), interquartile range 4), 3. Also, the “Number of acne papule over time (in words)” value in series [6] (4 weeks of treatment) is on record as “clearly reduced; also recorded: significantly decreased”. The “Papule count, mean” value in series [6] (after 4 weeks of daily topical treatment (5 ml in 5 ml water, 5 minutes), SD 10.2, p <0.001 vs before) is 18.3; in series [6] (before treatment (baseline), 16 patients, SD 12.4), 25.4. Besides, the “Time to apparent effect on the appearance of new papules” value in series [6] (topical treatment of Acne vulgaris) was no more than 2 weeks.

Consider `O=C(OOC(=O)c1ccccc1)c1ccccc1` [benzoyl peroxide], for which, in series [1], the “Number of acne papules / efficacy” value was “significant reduced”; the “Safety / tolerance in literature study” value was “safe and effective”.

In the case of `OO` [hydrogen peroxide], in series [1], the “Number of acne papules / efficacy” value is “at least as good” and the “Safety / tolerance in literature study” value is reported as “better tolerance for skin”. In addition, the “Effect on killing off microorganisms with increasing concentration” value with microorganisms is “practically the same”.
